Measurements from US9560989B2, “Method for determining the metabolic capacity of at least one enzyme” (HUMEDICS GMBH, priority 2011, dated 2017).

Key:
CYP450 1A2 [1] = target: T1, CYP450 1A2 (Homo sapiens, UniProt P05177); details: in vivo
T1 sequence (P05177 1-516): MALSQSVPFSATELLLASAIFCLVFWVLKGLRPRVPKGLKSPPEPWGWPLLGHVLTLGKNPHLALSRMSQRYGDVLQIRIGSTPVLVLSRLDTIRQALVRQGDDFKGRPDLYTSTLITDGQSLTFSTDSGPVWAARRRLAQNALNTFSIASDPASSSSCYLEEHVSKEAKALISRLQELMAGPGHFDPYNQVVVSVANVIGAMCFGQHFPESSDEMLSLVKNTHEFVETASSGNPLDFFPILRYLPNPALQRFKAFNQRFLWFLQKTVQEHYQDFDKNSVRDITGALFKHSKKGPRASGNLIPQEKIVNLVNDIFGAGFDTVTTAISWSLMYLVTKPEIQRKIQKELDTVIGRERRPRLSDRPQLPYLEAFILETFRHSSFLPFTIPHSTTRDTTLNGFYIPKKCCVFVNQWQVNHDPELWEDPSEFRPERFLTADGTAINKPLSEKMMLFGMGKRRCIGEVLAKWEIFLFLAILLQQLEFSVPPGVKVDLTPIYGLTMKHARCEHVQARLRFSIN
Protocol: As substrate, ^13C-labeled methacetin at a dose of 2 mg per kilogram bodyweight of the individual was administered to the individual, wherein the release period was shorter than 60 seconds. In the body of the individual the ^13C-labeled methacetin was metabolized in the liver to paracetamol and ^13C-labeled CO2. The latter was detected as product in the air exhaled by the individual.
1 DOB here refers to a change of the ^13CO2-to-^12CO2-ratio by a thousandth above the natural ratio. The obtained measured values, illustrated in FIG. 1, are subsequently fitted with a suitable model function. […] From this model function—with a function equation familiar as such—different parameters can now be derived which specify the function. […]
As methacetin is almost solely metabolized in the liver, with the specified metabolism dynamics it is possible to directly and immediately trace the metabolism of the administered substrate by the enzymes existing in the liver. […] Here, for instance the value of the maximum product concentration in the exhaled air Pmax allows a statement to be made about the number of the healthy liver cells and the liver volume which is thus available for metabolism; whereas the rise in the form of the time constant(s) of the model function, fitted to the measured values, allows statements to be made about the entrance velocity of the substrate into the liver cells. […]

CYP450 1A2 [2] = target: T1, CYP450 1A2; assay: metabolic power of the liver determined by methacetin metabolism at different dosages; format: in vivo; parameters: metabolized to ^13CO2 and paracetamol in the liver cells by the enzyme CYP450 1A2; from tissue; host or cells: liver of the living individual (in vivo); details: FIG. 2
Protocol: The metabolic power was determined according to the formulae indicated above for different methacetin metabolisms observed after methacetin administration in different dosages. Specifically, 1 mg ^13C-labeled methacetin per kg bodyweight, 2 mg/kg, 4 mg/kg and 8 mg/kg were administered.
This non-linearity is expressed by the function L(n/M), wherein n denotes the number of substrate molecules, i.e. methacetin molecules, and M denotes the bodyweight in kg. This function L(n/M) forms part of the fitting curve represented in FIG. 2 by the interpolation curve between the single measurement points.

time point of half-maximum methacetine metabolism (t1/2) (CYP450 1A2 [1]): ~1.5 min | time point of maximum methacetine metabolism (tmax) (CYP450 1A2 [1]): ~6.5 min | dependence of the measured signals on dosage (CYP450 1A2 [2]; 1 mg per kg body weight): linear dependence | dependence of the measured signals on dosage (CYP450 1A2 [2]; 2 mg/kg): linear dependence | deviation from the linear behaviour (CYP450 1A2 [2]; 4 mg/kg): 10% | deviation from the linear behaviour (CYP450 1A2 [2]; 8 mg/kg): more than 20%
Structure (SMILES): COc1ccc(NC(C)=O)cc1 [13C-labeled methacetin]
